Experiments:
[1] = test system: PG-PS-induced arthritis; test: Clinical (histopathological) assessment of PG-PS arthritis, joint histology score; type: in vivo, rat; conditions: for Total arthritis score / Bone Resorption score / Cartilage erosion score / Cell infiltration score / Pannus formation score: PG-PS arthritis; for Bone Resorption score / Cartilage erosion score / Cell infiltration score / Pannus formation score: score 0-4
Procedure: Clinical assessment of PG-PS arthritis. The histopathological evaluation was performed on the left and right hind joints of randomly selected animals from each study group by an independent histopathologist without knowledge of specific interventions. After completion of the study, the left and right hind ankles were removed, fixed in 10% buffered formalin, decalcified in 5% formic acid, paraffin-embedded, sectioned, and H&E stained for histological evaluation. A joint histology scoring system which grades the severity of 4 histopathological processes (cell infiltration, pannus formation, cartilage erosion, bone resorption), was used to quantify hind joint involvement in the PG-PS arthritis model (36). Dependent on the assigned score for each parameter (0=normal, 1=minimal, 2=mild, 3=moderate, 4=marked), the maximum total score per ankle is 16, and 32 per animal.
It was investigated whether the protective activity of the MetAP-2 inhibitor in this animal model of arthritis, which is characterized by aggressive synovitis, extensive pannus formation, cartilage degradation and focal bone erosion, was mediated through regression in the severity of all clinical indices tested, or whether this activity was targeting specific pathogenic processes.
A joint histology scoring system which grades the severity of 4 histopathological processes (cell infiltration, pannus formation, cartilage erosion, bone resorption) was used (O'Byrne (1991) Agents and Actions 134:239-241).

[2] = test system: primary human OC precursors; test: Cytotoxicity in OC precursor culture; type: cell-based; conditions: concentrations up to 100 nM
Procedure: (§1) The instant invention features such an inhibitor. In order to investigate the activity of the MetAP-2 inhibitor on osteoclast (OC) differentiation and bone resorption in vitro, yet another cell type critically associated with R^A pathogenesis in an in vitro osteoclastogenesis model was utilized. Primary human OC precursors were cultured for 7 days in the presence of M-CSF and RANKL, and vehicle or increasing concentrations of the MetAP-2 inhibitor.

[3] = test system: PG-PS-induced arthritis; test: Microfocal computed tomography of hind joints in rat PG-PS arthritis model; type: in vivo
Procedure: Microfocal computed tomography. All specimens were scanned on a Scanco Medical AG μCT 40 system. Images were obtained with an isotropic voxel resolution of 20 microns. A matrix size of 1024×1024 with 1000 projections was utilized for all scans. A total of 1836 slices were scanned for each specimen (the number of slices scanned was determined by the length of the scan needed to cover the entire ankle including the distal tibia). The scan time per specimen was approximately 2.6 hours. The images were then volume rendered using a fixed threshold (at two different thresholds: 255 and 140). The total bone volume and BMD were calculated over the same regions of all the specimens. Micro-CT was performed at Scanco USA, Incorporated.
Finally, the activity of the MetAP-2 inhibitor on the structural preservation of hind joints in rats with established disease was investigated.
The ankles including the distal tibia were scanned using a Scanco Medical AG μCT 40 system (threshold: 255), and the total bone volume and BMD were calculated over the same regions of all specimens.

[4] = test system: HFLS-R^A; conditions: 100 nM; cited from earlier work
[5] = test system: primary human osteoclast (OC) precursors; test: Osteoclast differentiation assay (TRAP staining); type: cell-based
Procedure: Osteoclast differentiation assays. Primary human osteoclast (OC) precursors (Cambrex) were seeded at 10,000 cells/well (50,000 cells/ml) in osteoclast precursor growth medium (Cambrex). The cells were cultured for 7 days in the presence of either M-CSF (33 ng/ml), M-CSF (33 ng/ml) and RANKL (33 ng/ml), or in the presence of both cytokines and different concentrations of the MetAP-2 inhibitor. OC differentiation was determined by staining for the OC marker TRAP, using a leukocyte acid phosphatase kit (Sigma). Briefly, after 7 days in culture, the cells were rinsed once with PBS, fixed with 37% formaldehyde in acetone-citrate buffer for 1 min, and stained for development of red color according to the manufacturer's instructions.
as §1

[6] = test system: primary human OC cultured on human bone particles; test: Bone resorption in vitro, CTX-I ELISA of culture supernatant; type: cell-based
Procedure: ELISAs for cartilage and bone biochemical turnover markers. The amount of COMP in serum was measured with a competitive enzyme immunoassay (MD Biosciences, Inc) according to the manufacturer's instructions. The detection limit of this ELISA was 0.2 U/L. Helical peptide (amino acids 620 to 633) from the α1 chain of bone-specific human CTX-I was measured either in cell culture supernatants of primary human OC precursors cultured as described above, or in urine with a competitive enzyme immunoassay (Quidel Corporation). The detection limit of this ELISA was 8 μg/L. All CTX-I measurements in urine were corrected for urinary creatinine excretion for each sample to account for potential differences in renal clearance rates among the different study groups. Urinary creatinine was measured with a colorimetric assay (Quidel Corporation).
To determine whether the inhibition of OC differentiation by the MetAP-2 inhibitor in vitro correlated with the inhibition of bone resorption in vitro, primary human OC were cultured on a thin layer of human bone particles in the presence of M-CSF and RANKL, and vehicle or increasing concentrations of the MetAP-2 inhibitor. […] After 7 days, the culture supernatant was collected and the amount of bone-specific collagen type I C-terminal helical peptide (CTX-I) was measured by ELISA.

[7] = PG-PS arthritis, 10 mg/kg, threshold 255

IC50 ([6]; 168 h, 7 days, M-CSF and RANKL, human bone particles, read-out: IC50, bone resorbing activity of OC (CTX-I)): ≤ 0.1 nM
Compound: CO[C@@H]1[C@H](OC(=O)N[C@@H](C(N)=O)C(C)C)CC[C@]2(CO2)[C@H]1[C@@]1(C)O[C@@H]1CC=C(C)C [MetAP-2 inhibitor, (1-Carbamoyl-2-methyl-propyl)-carbamic acid-(3R,4S,5S,6R)-5-methoxy-4-[(2R,3R)-2-methyl-3-(3-methyl-but-2-enyl)-oxiranyl]-1-oxa-spiro[2,5]oct-6-yl ester]
total arthritic score versus vehicle ([1]; 1, 5, 10 mg/kg p.o. qod): significantly decreased
Total arthritis score ([1]; 1 mg/kg): 7.00 ± 0.58^B
Bone Resorption score ([1]; 1 mg/kg): 2.05 ± 0.2
Cartilage erosion score ([1]; 1 mg/kg): 1.10 ± 0.12^B
Cell infiltration score ([1]; 1 mg/kg): 1.85 ± 0.15^A
Pannus formation score ([1]; 1 mg/kg): 2.00 ± 0.14^A
Total arthritis score ([1]; 5 mg/kg): 7.60 ± 0.67^B
Bone Resorption score ([1]; 5 mg/kg): 1.80 ± 0.20^B
Cartilage erosion score ([1]; 5 mg/kg): 1.25 ± 0.18^B
Cell infiltration score ([1]; 5 mg/kg): 2.15 ± 0.18^A
Pannus formation score ([1]; 5 mg/kg): 2.40 ± 0.20^A
Total arthritis score ([1]; 10 mg/kg): 5.83 ± 0.71^B
Bone Resorption score ([1]; 10 mg/kg): 2.00 ± 0.16^B
Cartilage erosion score ([1]; 10 mg/kg): 0.72 ± 0.14^B
Cell infiltration score ([1]; 10 mg/kg): 1.38 ± 0.31^A
Pannus formation score ([1]; 10 mg/kg): 1.72 ± 0.20^A
cytotoxicity [2]: did not induce cytotoxicity
structural integrity of hind joints, three-dimensional micro-CT images ([3]; 10 mg/kg p.o. qod, versus vehicle): protected the structural integrity of the joints and prevented focal bone erosions
BMD [3, 7]: 1087 ± 17.44 mg HA/ccm
Bone Volume (Vox-BV) [3, 7]: 213.8 ± 5.23
induction of apoptosis in HFLS-RA [4]: did not induce apoptosis
reversibility of the inhibition of OC differentiation [5]: fully reversible
inhibition of OC differentiation ([5]; concentration ≦0.1 nM): no detectable inhibition
generation of TRAP-positive mononuclear and multinucleated OC ([5]; concentrations at ≦1 nM, 7 days with M-CSF and RANKL): almost completely inhibited
degree of inhibition of bone resorption ([6]; at 1 nM and 10 nM, versus E-64 at 100 nM): comparable to the inhibitory activity of E-64 at 100 nM

Source: patent US20070254843A1, “Methods for treating bone associated diseases by the use of methionine aminopeptidase-2 inhibitors” (Praecis Pharmaceuticals Incorporated, priority 2006, published 2007)
